The source of these data is patent US20200268703A1, “MEDICINE FOR TREATING ADVANCED OR RECURRENT CANCER PATIENT BEING NON-RESPONSIVE OR NON-TOLERANT TO STANDARD CHEMOTHERAPY AND INCURABLE AND UNRESECTABLE” (HYOGO COLLEGE OF MEDICINE, priority 2017, published 2020).

The subject of the experiment is advanced or recurrent gastric cancer. The experiment is described as follows: Tumor immunity risk index value and disease course in gastric cancer patients given propagermanium. The format is in vivo, human. Particulars: for Disease course / Tumor immunity risk index value: 28th day after starting administration. As to the method:
30 mg of propagermanium [trade name: SEROCION (registered trademark), produced by SANWA KAGAKU KENKYUSHO CO., LTD.] was administered orally in three divided doses per day after meals to 4 patient cases (PG-1 to PG-4) who were diagnosed as advanced or recurrent oral cavity cancer which is non-responsive or non-tolerant to the standard chemotherapy and incurable and unresectable, a 2 patient cases (PG-5 and PG-6) who were diagnosed as advanced or recurrent gastric cancer which is non-responsive or non-tolerant to the standard chemotherapy [gastric cancer treatment guideline fourth edition (edited by Japan Gastric cancer Association, revised in May 2014)] and incurable and unresectable, and 5 healthy person cases (PG-7 to PG-11). 7.5 mL of peripheral blood of the cancer patients (PG-1 and PG-3: only before administration, PG-5 and PG-6: before administration and only 28th day after a start of administration) and healthy persons (all: only before the administration), were collected by a BD vacutainer blood collection tube at the time before the administration of the propagermanium and on 28th and 56th days after starting the administration. Thereafter, and the peripheral blood was centrifuged (1500 G for 15 minutes) to obtain the peripheral blood mononuclear cells (PBMC). The obtained peripheral blood mononuclear cells were fixed and stained using a T cell surface marker and a mouse IgG anti-human antibody against intracellular keratin. The stained cells were analyzed by flow cytometry using a Spectral Cell Analyzer (SP-6800, manufactured by SONY).
Regarding the T cells and the cytotoxic T cells, among living cells, CD45 positive and CD3 positive cells are separated to obtain T cells, and among the CD45 positive and CD3 positive cells, CD8 positive and CD4 negative cells are separated to obtain the cytotoxic T cells. The proportion of the cytotoxic T cells in the T cells was calculated.
In the circulating tumor cells in blood, in order to label the cytokeratin present inside the cells, after using Perm Buffer reagent (#421403, produced by BioLegend), staining was performed using a pankeratin antibody (#4523, produced by Cell Signaling). Since the circulating tumor cells in blood are larger than lymphocytes, when flow cytometry is performed, cells were selected in a wider range than in the selection of normal lymphocytes. After selecting cells negative in staining using Ghost Dye Violet 450 as living cells, pankeratin positive cells were regarded as the circulating tumor cells in blood, and the number of the pankeratin positive cells in 10000 peripheral blood mononuclear cells was calculated.
The calculated number of the pankeratin positive cells and the proportion of cytotoxic T cells in the T cells is substituted into Expression (1) below.
Number of pankeratin positive cells (pieces)/Proportion of cytotoxic T cells in T cells (%)/10 (I)
The disease of each patient was determined by an attending physician based on results of endoscopy, computed tomography (CT) examination, positron emission tomography (PET)-CT examination, magnetic resonance imaging (MRI) examination, X-ray (X-P) examination, and blood biochemistry examination including the major markers.

For propagermanium, the “Evaluation of the administration (effective / ineffective)” value is, setting by setting: (patient PG-5 (gastric cancer)) “ineffective”; (patient PG-6 (gastric cancer)) “effective”. In addition, the Disease course result is “disease progressed” (patient PG-5 (gastric cancer)) and “disease was controlled” (patient PG-6 (gastric cancer)). Besides, the “Tumor immunity risk index value” is given as 9.55 (patient PG-5 (gastric cancer), before 5.04) and 0.31 (patient PG-6 (gastric cancer), before 41.12).
